The values below come from patent US11708348B2, “Protease inhibitors for treatment of coronavirus infections” (The Scripps Research Institute, priority 2021, dated 2023).

One assay has as its system SARS-CoV-2 strain USA-WA1/2020. As to the kind of experiment: microbe, parasite or virus in culture. The note with it: Severe acute respiratory syndrome coronavirus 2, HeLa-ACE2, 24 h, HeLa-ACE2 cells, SARS-CoV-2 infection, 24 h; given as bound; read-out: EC50, uM (Hela). The assay is classed as cell-based.
For `CC(=O)N[C@H](C(=O)N1CC2(CC2)C[C@H]1C(=O)N[C@@H](C[C@@H]1CCNC1=O)C(=O)COC(F)(F)F)C(C)(C)C` [Compound 436, (S)-5-((S)-2-acetamido-3,3-dimethylbutanoyl)-N-((S)-3-oxo-1-((S)-2-oxopyrrolidin-3-yl)-4-(trifluoromethoxy)butan-2-yl)-5-azaspiro[2.4]heptane-6-carboxamide], the EC50 is more than 1 µM.

The assay is the same for the next values; noted with them: Severe acute respiratory syndrome coronavirus 2, HeLa-ACE2, 24 h, HeLa-ACE2 cells, SARS-CoV-2 infection, 24 h; read-out: EC50, uM (Hela).
Take `O=C1NCC[C@H]1C[C@H](NC(=O)[C@@H]1CC2(CC2)CN1C(=O)C(O)c1ccccn1)C(=O)COC(F)(F)F` (stereo partly drawn) [Compound 418, (6S)-5-(2-hydroxy-2-(pyridin-2-yl)acetyl)-N-((S)-3-oxo-1-((S)-2-oxopyrrolidin-3-yl)-4-(trifluoromethoxy)butan-2-yl)-5-azaspiro[2.4]heptane-6-carboxamide]: the EC50 was in the range of 0.05 to 0.2 µM. On the same count and under the same terms, in the case of `O=C1NCC[C@H]1C[C@H](NC(=O)[C@@H]1CC2(CC2)CN1C(=O)C(O)c1cccnc1)C(=O)COC(F)(F)F` (stereo partly drawn) [Compound 419, (6S)-5-(2-hydroxy-2-(pyridin-3-yl)acetyl)-N-((S)-3-oxo-1-((S)-2-oxopyrrolidin-3-yl)-4-(trifluoromethoxy)butan-2-yl)-5-azaspiro[2.4]heptane-6-carboxamide] it was 0.5 to 1 µM. On the same count and under the same terms, next, `O=C1NCC[C@H]1C[C@H](NC(=O)[C@@H]1CC2(CC2)CN1C(=O)C1(O)CC1)C(=O)COC(F)(F)F` [Compound 420, (S)-5-(l-hydroxycyclopropane-1-carbonyl)-N-((S)-3-oxo-1-((S)-2-oxopyrrolidin-3-yl)-4-(trifluoromethoxy)butan-2-yl)-5-azaspiro[2.4]heptane-6-carboxamide]: 0.05 to 0.2 µM.

Consider `O=C1NCC[C@H]1C[C@H](NC(=O)[C@@H]1CC2(CC2)CN1C(=O)C1(O)CCC(F)(F)CC1)C(=O)COC(F)(F)F` [Compound 421, (S)-5-(4,4-difluoro-1-hydroxycyclohexane-1-carbonyl)-N—((S)-3-oxo-1-((S)-2-oxopyrrolidin-3-yl)-4-(trifluoromethoxy)butan-2-yl)-5-azaspiro[2.4]heptane-6-carboxamide], for which the EC50 is less than 0.05 µM. The same measure, in the same setting: next, `O=C1NCC[C@H]1C[C@H](NC(=O)[C@@H]1CC2(CC2)CN1C(=O)C1(O)CCC1)C(=O)COC(F)(F)F` [Compound 422, (S)-5-(1-hydroxycyclobutane-1-carbonyl)-N-((S)-3-oxo-1-((S)-2-oxo-pyrrolidin-3-yl)-4-(trifluoromethoxy)butan-2-yl)-5-azaspiro[2.4]heptane-6-carboxamide]: 0.05 to 0.2 µM; `O=C1NCC[C@H]1C[C@H](NC(=O)[C@@H]1CC2(CC2)CN1C(=O)C1(O)CCCC1)C(=O)COC(F)(F)F` [Compound 423, (S)-5-(l-hydroxycyclopentane-1-carbonyl)-N-((S)-3-oxo-1-((S)-2-oxopyrrolidin-3-yl)-4-(trifluoromethoxy)butan-2-yl)-5-azaspiro[2.4]heptane-6-carboxamide]: 0.05 to 0.2 µM; `O=C1NCC[C@H]1C[C@H](NC(=O)[C@@H]1CC2(CC2)CN1C(=O)C1(O)CCCCC1)C(=O)COC(F)(F)F` [Compound 424, (S)-5-(l-hydroxycyclohexane-1-carbonyl)-N-((S)-3-oxo-1-((S)-2-oxopyrrolidin-3-yl)-4-(trifluoromethoxy)butan-2-yl)-5-azaspiro[2.4]heptane-6-carboxamide]: 0.05 to 0.2 µM. On the same count and under the same terms, next, `CCC[C@@H](O)C(=O)N1C[C@@H]2CCC[C@@H]2[C@H]1C(=O)N[C@@H](C[C@@H]1CCNC1=O)C(=O)COC(F)(F)F` [Compound 425, (1S,3aR,6aS)-2-((R)-2-hydroxypentanoyl)-N-((S)-3-oxo-1-((S)-2-oxopyrrolidin-3-yl)-4-(trifluoromethoxy)butan-2-yl)octahydrocyclo-penta[c]pyrrole-1-carboxamide]: 0.05 to 0.2 µM; `C[C@@H](C[C@@H](O)C(=O)N1CC2(CC2)C[C@H]1C(=O)N[C@@H](C[C@@H]1CCNC1=O)C(=O)COC(F)(F)F)C(F)(F)F` [Compound 427, (S)-N-((S)-3-oxo-1-((S)-2-oxopyrrolidin-3-yl)-4-(trifluoromethoxy)butan-2-yl)-5-((2R,4S)-5,5,5-trifluoro-2-hydroxy-4-methylpentanoyl)-5-azaspiro[2.4]heptane-6-carboxamide]: less than 0.05 µM; `CC(C)CCC(=O)N1CC2(CC2)C[C@H]1C(=O)N[C@@H](C[C@@H]1CCNC1=O)C(=O)COC(F)(F)F` [Compound 429, (S)-5-(4-methylpentanoyl)-N—((S)-3-oxo-1-((S)-2-oxopyrrolidin-3-yl)-4-(trifluoromethoxy)butan-2-yl)-5-azaspiro[2.4]heptane-6-carboxamide]: less than 0.05 µM. On the same count and under the same terms, next, `CC(C)(O)CCC(=O)N1CC2(CC2)C[C@H]1C(=O)N[C@@H](C[C@@H]1CCNC1=O)C(=O)COC(F)(F)F` [Compound 430, (S)-5-(4-hydroxy-4-methylpentanoyl)-N-((S)-3-oxo-1-((S)-2-oxopyrrolidin-3-yl)-4-(trifluoromethoxy)butan-2-yl)-5-azaspiro[2.4]heptane-6-carboxamide]: 0.2 to 0.5 µM; `CC(C)[C@H](O)CC(=O)N1CC2(CC2)C[C@H]1C(=O)N[C@@H](C[C@@H]1CCNC1=O)C(=O)COC(F)(F)F` [Compound 431, (S)-5-((R)-3-hydroxy-4-methylpentanoyl)-N-((S)-3-oxo-1-((S)-2-oxopyrrolidin-3-yl)-4-(trifluoromethoxy)butan-2-yl)-5-azaspiro[2.4]heptane-6-carboxamide]: 0.05 to 0.2 µM; `CC(C)[C@@H](O)CC(=O)N1CC2(CC2)C[C@H]1C(=O)N[C@@H](C[C@@H]1CCNC1=O)C(=O)COC(F)(F)F` [Compound 432, (S)-5-((S)-3-hydroxy-4-methylpentanoyl)-N-((S)-3-oxo-1-((S)-2-oxopyrrolidin-3-yl)-4-(trifluoromethoxy)butan-2-yl)-5-azaspiro[2.4]heptane-6-carboxamide]: 0.05 to 0.2 µM. Consider `COC(=O)N[C@H](C(=O)N1CC2(CC2)C[C@H]1C(=O)N[C@@H](C[C@@H]1CCNC1=O)C(=O)COC(F)(F)F)C(C)(C)C` [Compound 433, methyl ((S)-3,3-dimethyl-1-oxo-1-((S)-6-(((S)-3-oxo-1-((S)-2-oxopyrrolidin-3-yl)-4-(trifluoromethoxy)butan-2-yl)carbamoyl)-5-azaspiro[2.4]heptan-5-yl)butan-2-yl)carbamate], for which the half-maximal effective concentration (EC50) was in the range of 0.05 to 0.2 µM. Still for that read-out and setting: next, `CC(C)C[C@H](NC(=O)CNC1(C(F)(F)F)CC1)C(=O)N[C@@H](C[C@@H]1CCNC1=O)C(=O)COC(F)(F)F` [Compound 434, (S)-4-methyl-N-((S)-3-oxo-1-((S)-2-oxopyrrolidin-3-yl)-4-(trifluoromethoxy)butan-2-yl)-2-(2-((1-(trifluoromethyl)-cyclopropyl)amino)-acetamido)pentanamide]: less than 0.05 µM. As for `CNC(=O)N[C@H](CC(C)C)C(=O)N1CC2(CC2)C[C@H]1C(=O)N[C@@H](C[C@@H]1CCNC1=O)C(=O)COC(F)(F)F` [Compound 435, (S)-5-((methylcarbamoyl)-D-leucyl)-N—((S)-3-oxo-1-((S)-2-oxopyrrolidin-3-yl)-4-(trifluoromethoxy)butan-2-yl)-5-azaspiro[2.4]heptane-6-carboxamide], the EC50 is 0.2 to 0.5 µM.

Turning to `O=C(NCC(=O)N1CC2(CC2)C[C@H]1C(=O)N[C@@H](C[C@@H]1CCNC1=O)C(=O)COC(F)(F)F)c1ccccc1F` [Compound 437, (S)-5-((2-fluorobenzoyl)glycyl)-N-((S)-3-oxo-1-((S)-2-oxopyrrolidin-3-yl)-4-(trifluoromethoxy)butan-2-yl)-5-azaspiro[2.4]heptane-6-carboxamide], the EC50 was 0.05 to 0.2 µM.

Take `CC[C@@H](N)C(=O)N1C[C@H]2[C@@H]([C@H]1C(=O)N[C@@H](C[C@@H]1CCNC1=O)C(=O)COC(F)(F)F)C2(C)C` [Compound 439, (1R,2S,5S)-3-((R)-2-aminobutanoyl)-6,6-dimethyl-N-((S)-3-oxo-1-((S)-2-oxopyrrolidin-3-yl)-4-(trifluoromethoxy)butan-2-yl)-3-azabicyclo[3.1.0]-hexane-2-carboxamide]: the EC50 lay within 0.2 to 0.5 µM. Still for that read-out and setting: next, `CN1CCC[C@H]1C(=O)N1C[C@@H]2CCC[C@@H]2[C@H]1C(=O)N[C@@H](C[C@@H]1CCNC1=O)C(=O)COC(F)(F)F` [Compound 440, (1S,3aR,6aS)-2-(methylprolyl)-N-((S)-3-oxo-1-((S)-2-oxopyrrolidin-3-yl)-4-(trifluoromethoxy)butan-2-yl)octahydrocyclo-penta[c]pyrrole-1-carboxamide]: 0.5 to 1 µM; `CC(C)(C)[C@H](NC(=O)OC1CC1)C(=O)N1C[C@H]2[C@@H]([C@H]1C(=O)N[C@@H](C[C@@H]1CCNC1=O)C(=O)COC(F)(F)F)C2(C)C` [Compound 447, cyclopropyl ((S)-1-((1R,2S,5S)-6,6-dimethyl-2-(((S)-3-oxo-1-((S)-2-oxopyrrolidin-3-yl)-4-(trifluoromethoxy)butan-2-yl)carbamoyl)-3-azabicyclo[3.1.0]-hexan-3-yl)-3,3-dimethyl-1-oxobutan-2-yl)carbamate]: less than 0.05 µM.

Still in this assay, the particulars now being: Severe acute respiratory syndrome coronavirus 2, HeLa-ACE2, 24 h; read-out: EC50, uM (Hela).
For `CC(C)(C)[C@H](NC(=O)C(F)(F)F)C(=O)N1CC2(CC2)C[C@H]1C(=O)N[C@@H](C[C@@H]1CCNC1=O)C(=O)COC(F)(F)F` [Compound 441, (S)-5-((S)-3,3-dimethyl-2-(2,2,2-trifluoroacetamido)butanoyl)-N—((S)-3-oxo-1-((S)-2-oxopyrrolidin-3-yl)-4-(trifluoromethoxy)butan-2-yl)-5-azaspiro[2.4]heptane-6-carboxamide], the EC50 was less than 0.05 µM. For the molecule `CC1(C)[C@@H]2[C@@H](C(=O)N[C@@H](C[C@@H]3CCNC3=O)C(=O)COC(F)(F)F)N(C(=O)C(CN3CCC(F)(F)CC3)NC(=O)C(F)(F)F)C[C@@H]21` (stereo partly drawn) [Compound 442, (1R,2S, 5S)-3-(3-(4,4-difluoropiperidin-1-yl)-2-(2,2,2-trifluoroacetamido)-propanoyl)-6,6-dimethyl-N-((S)-3-oxo-1-((S)-2-oxopyrrolidin-3-yl)-4-(trifluoromethoxy)butan-2-yl)-3-azabicyclo[3.1.0]-hexane-2-carboxamide], the EC50 fell in the range of 0.2 to 0.5 µM.
